Experimental data reported in patent US10806140B2, “Antimicrobial compound” (Physical Sciences, Inc., priority 2018, dated 2020).

What was measured:
E. Coli = assay: JIS Z 2801 antimicrobial test of metallic coupons, E. Coli; format: cell-based; conditions: clear anodized aluminum coupon, front side; vs control without dendrimer; 24 hours
Protocol: The AM testing was performed using the standardized JIS Z 2801 method against the Gram negative, E. Coli bacteria. A summary of the procedure is presented below:
The test microorganism is prepared, usually by growth in a liquid culture medium. • The suspension of test microorganism is standardized by dilution in a nutritive broth (this affords microorganisms the opportunity to proliferate during the test). • Control and test surfaces are inoculated with microorganisms, and then the microbial inoculum is covered with a thin, sterile film. Covering the inoculum spreads it, prevents it from evaporating, and ensures close contact with the antimicrobial surface. • Microbial concentrations are determined at “time zero” by elution followed by dilution and plating to agar. • A control is run to verify that the neutralization/elution method effectively neutralizes the antimicrobial agent in the antimicrobial surface being tested. • Inoculated, covered control and antimicrobial test surfaces are allowed to incubate undisturbed in a humid environment for 24 hours, usually at body temperature. • After incubation, microbial concentrations are determined. Reduction of microorganisms relative to the control surface is calculated.

K. pneumoniae = assay: AATCC 100 antimicrobial test of fabrics, K. pneumoniae; format: cell-based; conditions: for AM efficacy against K. Pneumoniae (FIG. 37): derivatized cotton swatches
Protocol: (§1) The antimicrobial testing during this effort was performed. The evaluation of the AM efficacy has been performed using a standard method, based on the AATCC 100 protocol.
(§2) The experimental procedure starts with 1 mL of a bacterial culture (S. aureus representative for Gram positive bacteria or K. pneumoniae representative for Gram negative bacteria) which is inoculated to 2-3 fabric swatches (full absorption). The mixture is incubated for selected times. The mixture is then diluted with PBS and a bacterial culture (agar plate) is performed. The colony forming units (CFUs) are determined and the results are expressed as kill efficiency (percentage kill relative to the initial concentration).
The silver fabrics are considered to be the state-of the art in the realm of AM textiles. Two silver-based consumer products (cotton fabrics) were selected for evaluation of their AM properties compared to those of QAC-I derivatized cotton. The first material comprised a silver-shirt which contained silver nanoparticles. The second material was a silver-towel which contained a permanent coating of silver ions. Swatches of both products were generated and the antimicrobial efficacy was tested using the AATCC 100 protocol (K. Pneumoniae at 4, 24 and 48 hrs. time points).

S. aureus = assay: AATCC 100 antimicrobial test of derivatized fabrics, S. aureus; format: cell-based; conditions: for % Kill at 4 hours / % Kill at 24 hours: dendrimer attached to cotton fabric, S. aureus; for % kill at 4 hrs.: direct functionalization, ~1×10^6 CFU/mL; for % Kill of laundered fabric (4 hrs.): derivatized cotton
Protocol: The antimicrobial testing during this effort was performed. […] The mixture is incubated for selected times. The mixture is then diluted with PBS and a bacterial culture (agar plate) is performed. The colony forming units (CFUs) are determined and the results are expressed as kill efficiency (percentage kill relative to the initial concentration).

C. Difficile (spores) = assay: Additional AM testing of derivatized cotton, C. Difficile spores; format: cell-based; conditions: derivatized cotton fabrics
MRSA = assay: Additional AM testing of derivatized cotton, MRSA; format: cell-based; conditions: derivatized cotton fabrics
[1] = system: C. Difficile (vegetative); assay: Additional AM testing of derivatized cotton, C. Difficile vegetative cells; format: cell-based; conditions: derivatized cotton fabrics
S. Epidermisis = assay: Broad spectrum AM testing of derivatized cotton, S. Epidermisis; format: cell-based; conditions: derivatized cotton fabrics
Protocol: as §1, §2
(§3) The QAC-I derivatized cotton fabrics were evaluated against several strains of Gram positive and Gram negative bacteria and one fungus (C. Albicans).

C. Albicans = assay: Broad spectrum AM testing of derivatized cotton, C. Albicans; format: cell-based; conditions: derivatized cotton fabrics
Protocol: as §1, §2, §3

[2] = system: skin of New Zealand White rabbits; assay: Direct Primary Skin Irritation Test - ISO; format: in vivo
Protocol: Cotton fabrics derivatized with QAC-I dendrimer was evaluated at Toxikon for skin irritation using a GLP protocol based on “Direct Primary Skin Irritation Test—ISO”. The test article was evaluated for its potential to produce primary skin irritation after a single topical minimum 4 hour application to the skin of New Zealand White rabbits. Test sites were scored for erythema and/or edema.

MS2 = conditions: derivatized cotton fabrics
Source text: Cotton fabrics derivatized with imidazolium dendrimer were further evaluated for the AM efficacy against other pathogens.

CCCCCCCCCCn1cc[n+](CCNC(=O)NCCCNC(=O)CCN(CCCNC(=O)CCN(CCC(=O)NCCCN(CCC(=O)NCCCNC(=O)NCC[n+]2ccn(CCCCCCCCCC)c2C)CCC(=O)NCCCNC(=O)NCC[n+]2ccn(CCCCCCCCCC)c2C)CCc2ccc(NC(=O)CP(=O)(O)O)cc2)CCC(=O)NCCCNC(=O)NCC[n+]2ccn(CCCCCCCCCC)c2C)c1C.[Cl-].[Cl-].[Cl-].[Cl-] [AM compound (1)]
log reduction of the inoculum (E. Coli): > 6 log | reduction of the inoculum (%) (E. Coli): > 99.9999%

CCCCCCCCCCCC[N+](C)(C)CCNC(=O)NCCCNC(=O)CCN(CCCNC(=O)CCN(CCC(=O)NCCCN(CCC(=O)NCCCNC(=O)NCC[N+](C)(C)CCCCCCCCCCCC)CCC(=O)NCCCNC(=O)NCC[N+](C)(C)CCCCCCCCCCCC)CCc1ccc(Nc2nc(Cl)nc(Cl)n2)cc1)CCC(=O)NCCCNC(=O)NCC[N+](C)(C)CCCCCCCCCCCC.[Cl-].[Cl-].[Cl-].[Cl-] [QAC-4]
AM efficacy against K. Pneumoniae (FIG. 37) (K. pneumoniae): very high efficacy | % Kill at 4 hours (S. aureus): >99% | % Kill at 24 hours (S. aureus): 62%

CCCCCCCCCCCCCCCCCC[N+](C)(C)CCNC(=O)NCCCNC(=O)CCN(CCCNC(=O)CCN(CCC(=O)NCCCN(CCC(=O)NCCCNC(=O)NCC[N+](C)(C)CCCCCCCCCCCCCCCCCC)CCC(=O)NCCCNC(=O)NCC[N+](C)(C)CCCCCCCCCCCCCCCCCC)CCc1ccc(Nc2nc(Cl)nc(Cl)n2)cc1)CCC(=O)NCCCNC(=O)NCC[N+](C)(C)CCCCCCCCCCCCCCCCCC.[Cl-].[Cl-].[Cl-].[Cl-] [QAC-C18]
% Kill at 4 hours (S. aureus): 78% | % Kill at 24 hours (S. aureus): 11%

CCCCCCCCCCCC[N+](C)(CCCCCCCCCCCC)CCNC(=O)NCCCNC(=O)CCN(CCCNC(=O)CCN(CCC(=O)NCCCN(CCC(=O)NCCCNC(=O)NCC[N+](C)(CCCCCCCCCCCC)CCCCCCCCCCCC)CCC(=O)NCCCNC(=O)NCC[N+](C)(CCCCCCCCCCCC)CCCCCCCCCCCC)CCc1ccc(Nc2nc(Cl)nc(Cl)n2)cc1)CCC(=O)NCCCNC(=O)NCC[N+](C)(CCCCCCCCCCCC)CCCCCCCCCCCC.[Cl-].[Cl-].[Cl-].[Cl-] [QAC-D]
% Kill at 4 hours (S. aureus): −38%

CCCCCCCCCCn1cc[n+](CCNC(=O)NCCCNC(=O)CCN(CCCNC(=O)CCN(CCC(=O)NCCCN(CCC(=O)NCCCNC(=O)NCC[n+]2ccn(CCCCCCCCCC)c2C)CCC(=O)NCCCNC(=O)NCC[n+]2ccn(CCCCCCCCCC)c2C)CCc2ccc(Nc3nc(Cl)nc(Cl)n3)cc2)CCC(=O)NCCCNC(=O)NCC[n+]2ccn(CCCCCCCCCC)c2C)c1C.[Cl-].[Cl-].[Cl-].[Cl-] [QAC-I]
% Reduction (C. Difficile (spores)): 99.82% | % Reduction (MRSA): 99.80% | % Reduction [1]: 99.20% | AM Efficacy (max.) (K. pneumoniae; derivatized cotton fabrics, K. Pneumoniae): >99.99% | AM efficacy against K. Pneumoniae (FIG. 37) (K. pneumoniae): very high efficacy | AM Efficacy (max.) (S. Epidermisis): >99.99% | % Kill at 4 hours (S. aureus): >99% | % Kill at 24 hours (S. aureus): >99% | % kill at 4 hrs. (S. aureus; derivatized NYCO fabric): > 99% | AM Efficacy (max.) (S. aureus; derivatized cotton fabrics, S. Aureus): >99.999% | % Kill of laundered fabric (4 hrs.) (S. aureus; reverse protocol, laundering detergent None, S. Aureus, % kill relative to final amount of bacteria): >99.99% | % Kill of laundered fabric (4 hrs.) (S. aureus; 1 accelerated cycle 45 minutes at 49° C., Tide 0.23% w/v, S. Aureus): 24% | % Kill of laundered fabric (4 hrs.) (S. aureus; 1 accelerated cycle 45 minutes at 49° C., Tween-20 0.23% w/v, S. Aureus): >99.99% | % kill at 4 hrs. (S. aureus; derivatized polyester fabric): > 99% | AM Efficacy (max.) (C. Albicans): >99.99% | Skin irritation classification ([2]; criteria of the protocol): negligible irritant | Edema score ([2]; test sites, 24 Hours, Site 1): 0/0 | Erythema score ([2]; test sites, 24 Hours, Site 1): 0/0 | Edema score ([2]; test sites, 24 Hours, Site 2): 0/0 | Erythema score ([2]; test sites, 24 Hours, Site 2): 0/0 | Edema score ([2]; test sites, 48 Hours, Site 1): 0/0 | Erythema score ([2]; test sites, 48 Hours, Site 1): 0/0 | Edema score ([2]; test sites, 48 Hours, Site 2): 0/0 | Erythema score ([2]; test sites, 48 Hours, Site 2): 0/0 | Edema score ([2]; test sites, 60 Minutes, Site 1): 0/0 | Erythema score ([2]; test sites, 60 Minutes, Site 1): 0/0 | Edema score ([2]; test sites, 60 Minutes, Site 2): 0/0 | Erythema score ([2]; test sites, 60 Minutes, Site 2): 0/0 | Edema score ([2]; test sites, 72 Hours, Site 1): 0/0 | Erythema score ([2]; test sites, 72 Hours, Site 1): 0/0 | Edema score ([2]; test sites, 72 Hours, Site 2): 0/0 | Erythema score ([2]; test sites, 72 Hours, Site 2): 0/0 | Total (Erythema + Edema Scores)/(2 Test Sites × 3 Observation Points) ([2]; test sites, per animal, 60 minute scores not included): 0.0 | % Reduction (MS2): 99.95%
